US20250066371A1, “FLUOROALKOXYALKYLENE-DIHYDROIMIDAZO[5,1-D]TETRAZINONE COMPOUNDS AND RELATED COMPOUNDS AND THEIR USE IN TREATING MEDICAL CONDITIONS” (priority 2023, published 2025)
pIC50: −log10 of the molar value. Where two headings read alike, the source gives them in different places.

Assays:
[1] = test system: LN229 gliobastoma cells MGMT−/MMR+; assay: Anti-cancer assay, isogenic LN229 cells, nuclei count (Examples 43, 46); type: cell-based; details: Homo sapiens, LN-229; MGMT negative/MMR positive; Example 46, maximum concentration 200 μM; read-out: IC50 for causing the death of LN229 cells
[2] = test system: LN229 gliobastoma cells MGMT+/MMR+; assay: Anti-cancer assay, isogenic LN229 cells, nuclei count (Example 43); type: cell-based; details: Homo sapiens, LN-229; LN229 MGMT+/MMR+; 120 hours; read-out: MGMT+ MMR+ Activity
From the text: (§1) Cytotoxicity of the compounds may be measured in short-term cell viability assays against four isogenic LN229 glioblastoma cell lines engineered to be proficient or deficient in MGMT and/or MMR activity by using short hairpin RNAs (shRNAs) targeting MSH2. This approach allows for determination of the relationship between MGMT status, MMR status, and compound activity. LN229 cells are maintained in Dulbecco's Modified Eagle Medium (DMEM) supplemented with 10% fetal bovine serum, 1% Penicillin/Streptomycin, and 0.1% Fungin. DAY 0: Cells are plated into sterile 96-well plates (Corning Costar 96-well) at a concentration of 500 cells/well using a Multichannel pipettor. Then, assay plates are incubated overnight in a 37° C. 5% CO2 incubator. DAY 1: Compounds are prepared as 50 mM stocks in dimethyl sulfoxide (DMSO) and stored protected from light at room temperature (RT) until use. Prior to compound addition, a two-fold serial dilution of compound stock solutions is performed in DMSO from 30 mM to 0.117 mM in a 96-well Master plate. Vehicle control wells contain DMSO. 97 μL of media is added to each well of a new 96-well plate (Daughter plate) and 3 μL of drug solution from Master plate is added to corresponding wells in the Daughter plate resulting in a 3× plate. Three replicate dilution curves of each compound are run on each assay plate. The final concentration of compounds ranges from 300 μM to 1.171 μM (9-point, 2-fold dilution dose response curve), and the final DMSO concentration is 1%.
(§2) Assay plates are incubated for 120 hours at 37° C. in a humidified 5% CO2 incubator. DAY 5: Following incubation, cells are fixed with 4% paraformaldehyde and stained with Hoechst dye for nuclei visualization. Fixation, staining and washing is performed by using a Thermo Scientific Multidrop Combi. Images are acquired on a BioTek Cytation 5 Cell Imaging Multimode Reader and quantified using Cell Profiler image analysis software. Raw cell count data for test compounds are normalized to percent viability relative to the DMSO vehicle control.
(§3) Isogenic LN229 gliobastoma cells were maintained in Dulbecco's Modified Eagle Medium (DMEM) supplemented with 10% fetal bovine serum, 1% Penicillin/Streptomycin, and 0.1% Fungin. DAY 0: Cells were plated into sterile 96-well plates (Corning Costar 96-well) at a concentration of 500 cells/well using a Multichannel pipettor. Then, assay plates were incubated overnight in a 37° C. 5% CO2 incubator. DAY 1: Compounds were prepared as 50 mM stocks in dimethyl sulfoxide (DMSO) and stored protected from light at room temperature (RT) until use. Prior to compound addition, a two-fold serial dilution of compound stock solutions was performed in DMSO from 30 mM to 0.117 mM in a 96-well Master plate. Vehicle control wells contained DMSO. 97 μL of media was added to each well of a new 96-well plate (Daughter plate) and 3 μL of drug solution from Master plate was added to corresponding wells in the Daughter plate resulting in a 3× plate. Three replicate dilution curves of each compound were run on each assay plate. The final concentration of compounds ranged from 300 μM to 1.171 μM (9-point, 2-fold dilution dose response curve), and the final DMSO concentration was 1%.
as §2, with “plates were” for “plates are”, “cells were” for “cells are”, “washing was” for “washing is”, “Images were” for “Images are”, “compounds were” for “compounds are”

[3] = test system: LN229 gliobastoma cells MGMT+/MMR−; assay: as above; type: cell-based; details: Homo sapiens, LN-229; LN229 MGMT+/MMR−; 120 hours; read-out: MGMT+ MMR− Activity
From the text: as §1, §2, §3
as §2, with “plates were” for “plates are”, “cells were” for “cells are”, “washing was” for “washing is”, “Images were” for “Images are”, “compounds were” for “compounds are”

[4] = test system: LN229 gliobastoma cells MGMT−/MMR+; assay: Anti-cancer assay, isogenic LN229 cells, nuclei count (Examples 43, 46); type: cell-based; details: Homo sapiens, LN-229; LN229 MGMT−/MMR+; 120 hours; read-out: MGMT− MMR+ Activity
From the text: as §1, §2, §3
as §2, with “plates were” for “plates are”, “cells were” for “cells are”, “washing was” for “washing is”, “Images were” for “Images are”, “compounds were” for “compounds are”, “control. […]” for “control.”

[5] = test system: LN229 gliobastoma cells MGMT−/MMR−; assay: as above; type: cell-based; details: Homo sapiens, LN-229; LN229 MGMT−/MMR−; 120 hours; read-out: MGMT− MMR− Activity
From the text: as §1, §2, §3
as §2, with “plates were” for “plates are”, “cells were” for “cells are”, “washing was” for “washing is”, “Images were” for “Images are”, “compounds were” for “compounds are”, “control. […]” for “control.”

[6] = test system: rats; assay: Animal model toxicity testing in rats; details: tested doses exceeded those at which A1 caused 100% mortality

NC(=O)c1ncn2c(=O)n(CCOC(F)(F)F)nnc12 [Compound I-1, 4-Oxo-3-(2-(trifluoromethoxy)ethyl)-3,4-dihydroimidazo[5,1-d][1,2,3,5]tetrazine-8-carboxamide]
pIC50 [1]: > 4.70 | pIC50 [2]: < 4.00 | pIC50 [3]: < 4.00 | pIC50 [4]: > 4.70 | pIC50 [5]: > 4.70 | adverse clinical signs [6]: no adverse clinical signs were observed
